This assay has as its system mouse medulloblastoma (Patched 1(+/-), p53(-/-)) subcutaneously transplanted into nude mouse. The assay is described as follows: In vivo anti-tumor test, mouse medulloblastoma allogeneic transplantation model. The following applies: 1 mg/kg, orally twice a day for 2 weeks, 0.5% methylcellulose suspension; nude mouse with subcutaneous medulloblastoma; at the end of the test; p < 0.025 (Dunnett's test). How it is done: According to the description in Sasaki, K. et al., (2006) Cancer Res. 66: 4215-4222, an anti-tumor effect of a compound was evaluated using a mouse medulloblastoma allogeneic transplantation model. To be precise, Patched 1 gene mutant mouse (lineage name: Ptch1tm1Mps/J) was purchased from The Jackson Laboratory and p53 gene mutant mouse (lineage name: P53N4-M, Nomenclature: B6.129-Trp53tm/BrdN4) was purchased from Taconic, and a mouse of Patched 1(+/−), p53(−/−) phenotype was prepared by mating. […]
An anti-tumor test was performed using a tumor passaged by subcutaneous transplantation. […] The tumor diameter after transplantation was measured and, when the tumor size reached 150-250 mm^3, the anti-tumor test was started using 5 mice per group.
The test compound was prepared to achieve a dose of 1 mg/kg with a 0.5% methylcellulose (Shin-Etsu Chemical Co. Ltd., Cat. No. SM-100) suspension, and orally administered twice a day for 2 weeks. The tumor size was calculated based on the longer diameter and shorter diameter of the tumor measured with an electron vernier caliper. After the start of the test, the tumor size was measured every 2 or 3 days and the growth rate of the tumor size was calculated. […]

With `CCc1cc2c(c(OCC(F)(F)F)c(C(=O)NC3CCN(C(=O)CO)CC3)n2C)c(=O)n1-c1ccc(F)cc1` [Example 5, 6-ethyl-5-(4-fluorophenyl)-N-[1-(hydroxyacetyl)piperidin-4-yl]-1-methyl-4-oxo-3-(2,2,2-trifluoroethoxy)-4,5-dihydro-1H-pyrrolo[3,2-c]pyridine-2-carboxamide], the “T/C (%) growth rate of the tumor size” value was 42%.

As to `CCc1cc2c(c(OC(C)C)c(C(=O)NC3CCN(C(=O)CO)CC3)n2C)c(=O)n1-c1ccc(F)cc1` [Example 7, 6-ethyl-5-(4-fluorophenyl)-N-[1-(hydroxyacetyl)piperidin-4-yl]-1-methyl-3-(1-methylethoxy)-4-oxo-4,5-dihydro-1H-pyrrolo[3,2-c]pyridine-2-carboxamide], the “T/C (%) growth rate of the tumor size” value is on record as 40%.
